# Experimental data reported in patent publication US8802597B2, “Herbicidal pyrimidines” (E I du Pont de Nemours and Company, priority 2003, dated 2014).
# What was measured:
# Type in all cases: in vivo
# kochia (Kochia scoparia) [1] = assay: Test D pre/postemergence; conditions: scale 0 to 100 (100 = complete control)
# Procedure, shortened: (§1)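 Responses are visual ratings on a 0 to 100 scale, with 100 meaning complete control, taken 15 to 25 days after treatment in a controlled growth environment. Applications were pre- and postemergence (1- to 4-leaf plants) using a non-phytotoxic solvent formulation with surfactant.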
# [2] = test system: lambsquarters (Chenopodium album); assay: Test D pre/postemergence; conditions: scale 0 to 100 (100 = complete control)
# Procedure, shortened: as §1
# [3] = test system: pigweed (Amaranthus retroflexus); assay: Test D pre/postemergence; conditions: scale 0 to 100 (100 = complete control)
# Procedure, shortened: as §1
# [4] = test system: wheat (Triticum aestivum); assay: Test D pre/postemergence; conditions: scale 0 to 100 (100 = complete control)
# Procedure, shortened: as §1
# [5] = test system: wild buckwheat (Polygonum convolvulus); assay: Test D pre/postemergence; conditions: scale 0 to 100 (100 = complete control)
# Procedure, shortened: as §1
# [6] = test system: Canada horseweed (Conyza canadensis); assay: Test G pre/postemergence
# Procedure, shortened: (§2)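 Test chemicals in a non-phytotoxic solvent blend with surfactant are applied to soil after seeding or to foliage of 2–18 cm seedlings. Greenhouse response is scored visually at 12–21 days on a 0 to 100 control scale.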
# [7] = test system: Russian thistle (Salsola kali); assay: Test G pre/postemergence
# Procedure, shortened: as §2
# [8] = test system: common groundsel (Senecio vulgaris); assay: Test G pre/postemergence
# Procedure, shortened: as §2
# [9] = test system: common purslane (Portulaca oleracea); assay: Test G pre/postemergence
# Procedure, shortened: as §2
# kochia (Kochia scoparia) [10] = assay: Test G pre/postemergence
# Procedure, shortened: as §2
# [11] = test system: purple nutsedge (Cyperus rotundus); assay: Test G pre/postemergence
# Procedure, shortened: as §2
# [12] = test system: spanishneedles (Bidens bipinnata); assay: Test G pre/postemergence
# Procedure, shortened: as §2
# [13] = Postemergence, 250 g ai/ha, scale 0 to 100
# [14] = Postemergence, 500 g ai/ha, scale 0 to 100
# [15] = Postemergence, 125 g ai/ha, scale 0 to 100
# [16] = Postemergence, 375 g ai/ha, scale 0 to 100
# [17] = Preemergence, 62 g ai/ha, scale 0-100
# [18] = Preemergence, 125 g ai/ha, scale 0-100
# [19] = Preemergence, 250 g ai/ha, scale 0-100
# [20] = Preemergence, 500 g ai/ha, scale 0 to 100
# [21] = Preemergence, 375 g ai/ha, scale 0 to 100
# [22] = Postemergence, 62 g ai/ha, scale 0 to 100
# [23] = Preemergence, 500 g ai/ha, scale 0-100
structure (smiles),measurement,setting,value
"CCOC(=O)c1nc(C2CC2)nc(N)c1Br [Compound 1, ethyl 6-amino-5-bromo-2-cyclopropyl-4-pyrimidinecarboxylate]","Plant response rating, Kochia","kochia (Kochia scoparia) [1]; Postemergence, 16 g ai/ha",85
same,"Plant response rating, Kochia","kochia (Kochia scoparia) [1]; Postemergence, 31 g ai/ha",100
same,"Plant response rating, Kochia","kochia (Kochia scoparia) [1]; Postemergence, 62 g ai/ha",100
same,"Plant response rating, Kochia","kochia (Kochia scoparia) [1]; Postemergence, 125 g ai/ha",100
same,"Plant response rating, Kochia","kochia (Kochia scoparia) [1]; Preemergence, 16 g ai/ha",65
same,"Plant response rating, Kochia","kochia (Kochia scoparia) [1]; Preemergence, 31 g ai/ha",75
same,"Plant response rating, Kochia","kochia (Kochia scoparia) [1]; Preemergence, 62 g ai/ha",100
same,"Plant response rating, Kochia","kochia (Kochia scoparia) [1]; Preemergence, 125 g ai/ha",100
same,"Plant response rating, Lambsquarters","[2]; Postemergence, 16 g ai/ha",95
same,"Plant response rating, Lambsquarters","[2]; Postemergence, 31 g ai/ha",95
same,"Plant response rating, Lambsquarters","[2]; Postemergence, 62 g ai/ha",100
same,"Plant response rating, Lambsquarters","[2]; Postemergence, 125 g ai/ha",100
same,"Plant response rating, Lambsquarters","[2]; Preemergence, 16 g ai/ha",65
same,"Plant response rating, Lambsquarters","[2]; Preemergence, 31 g ai/ha",75
same,"Plant response rating, Lambsquarters","[2]; Preemergence, 62 g ai/ha",85
same,"Plant response rating, Lambsquarters","[2]; Preemergence, 125 g ai/ha",100
same,"Plant response rating, Pigweed","[3]; Postemergence, 16 g ai/ha",60
same,"Plant response rating, Pigweed","[3]; Postemergence, 31 g ai/ha",100
same,"Plant response rating, Pigweed","[3]; Postemergence, 62 g ai/ha",100
same,"Plant response rating, Pigweed","[3]; Postemergence, 125 g ai/ha",100
same,"Plant response rating, Pigweed","[3]; Preemergence, 16 g ai/ha",60
same,"Plant response rating, Pigweed","[3]; Preemergence, 31 g ai/ha",70
same,"Plant response rating, Pigweed","[3]; Preemergence, 62 g ai/ha",95
same,"Plant response rating, Pigweed","[3]; Preemergence, 125 g ai/ha",100
same,"Plant response rating, Wheat","[4]; Postemergence, 16 g ai/ha",40
same,"Plant response rating, Wheat","[4]; Postemergence, 31 g ai/ha",80
same,"Plant response rating, Wheat","[4]; Postemergence, 62 g ai/ha",90
same,"Plant response rating, Wheat","[4]; Postemergence, 125 g ai/ha",100
same,"Plant response rating, Wheat","[4]; Preemergence, 16 g ai/ha",35
same,"Plant response rating, Wheat","[4]; Preemergence, 31 g ai/ha",70
same,"Plant response rating, Wheat","[4]; Preemergence, 62 g ai/ha",70
same,"Plant response rating, Wheat","[4]; Preemergence, 125 g ai/ha",70
same,"Plant response rating, Buckwheat, Wild","[5]; Postemergence, 16 g ai/ha",50
same,"Plant response rating, Buckwheat, Wild","[5]; Postemergence, 31 g ai/ha",80
same,"Plant response rating, Buckwheat, Wild","[5]; Postemergence, 62 g ai/ha",80
same,"Plant response rating, Buckwheat, Wild","[5]; Postemergence, 125 g ai/ha",80
same,"Plant response rating, Buckwheat, Wild","[5]; Preemergence, 16 g ai/ha",45
same,"Plant response rating, Buckwheat, Wild","[5]; Preemergence, 31 g ai/ha",60
same,"Plant response rating, Buckwheat, Wild","[5]; Preemergence, 62 g ai/ha",70
same,"Plant response rating, Buckwheat, Wild","[5]; Preemergence, 125 g ai/ha",75
same,"Plant response rating, Horseweed",[6]; [13],100
same,"Plant response rating, Horseweed",[6]; [14],100
same,"Plant response rating, Horseweed",[6]; [15],70
same,"Plant response rating, Horseweed",[6]; [16],100
same,"Plant response rating, Horseweed",[6]; [17],95
same,"Plant response rating, Horseweed",[6]; [18],95
same,"Plant response rating, Horseweed",[6]; [19],100
same,"Plant response rating, Horseweed",[6]; [20],100
same,"Plant response rating, Horseweed",[6]; [21],100
same,"Plant response rating, Russian Thistle",[7]; [13],100
same,"Plant response rating, Russian Thistle",[7]; [22],100
same,"Plant response rating, Russian Thistle",[7]; [15],100
same,"Plant response rating, Russian Thistle",[7]; [16],100
same,"Plant response rating, Russian Thistle",[7]; [17],100
same,"Plant response rating, Russian Thistle",[7]; [18],100
same,"Plant response rating, Russian Thistle",[7]; [19],100
same,"Plant response rating, Russian Thistle",[7]; [23],100
same,"Plant response rating, Russian Thistle",[7]; [20],100
same,"Plant response rating, Groundsel",[8]; [13],95
same,"Plant response rating, Groundsel",[8]; [14],100
same,"Plant response rating, Groundsel",[8]; [22],60
same,"Plant response rating, Groundsel",[8]; [15],95
same,"Plant response rating, Groundsel",[8]; [16],100
same,"Plant response rating, Groundsel",[8]; [17],60
same,"Plant response rating, Groundsel",[8]; [18],100
same,"Plant response rating, Groundsel",[8]; [19],100
same,"Plant response rating, Groundsel",[8]; [20],100
same,"Plant response rating, Groundsel",[8]; [21],100
same,"Plant response rating, Purslane",[9]; [13],100
same,"Plant response rating, Purslane",[9]; [14],100
same,"Plant response rating, Purslane",[9]; [22],80
same,"Plant response rating, Purslane",[9]; [15],100
same,"Plant response rating, Purslane",[9]; [16],100
same,"Plant response rating, Purslane",[9]; [17],10
same,"Plant response rating, Purslane",[9]; [18],60
same,"Plant response rating, Purslane",[9]; [19],95
same,"Plant response rating, Purslane",[9]; [23],100
same,"Plant response rating, Purslane",[9]; [20],100
same,"Plant response rating, Kochia",kochia (Kochia scoparia) [10]; [16],95
same,"Plant response rating, Kochia",kochia (Kochia scoparia) [10]; [17],100
same,"Plant response rating, Kochia",kochia (Kochia scoparia) [10]; [18],100
same,"Plant response rating, Kochia",kochia (Kochia scoparia) [10]; [19],100
same,"Plant response rating, Kochia",kochia (Kochia scoparia) [10]; [23],100
same,"Plant response rating, Kochia",kochia (Kochia scoparia) [10]; [20],100
same,"Plant response rating, Nutsedge, Purple",[11]; [13],20
same,"Plant response rating, Nutsedge, Purple",[11]; [14],30
same,"Plant response rating, Nutsedge, Purple",[11]; [15],10
same,"Plant response rating, Nutsedge, Purple",[11]; [16],30
same,"Plant response rating, Nutsedge, Purple",[11]; [17],10
same,"Plant response rating, Nutsedge, Purple",[11]; [18],100
same,"Plant response rating, Nutsedge, Purple",[11]; [19],100
same,"Plant response rating, Nutsedge, Purple",[11]; [23],100
same,"Plant response rating, Nutsedge, Purple",[11]; [20],100
same,"Plant response rating, Spanishneedles",[12]; [13],95
same,"Plant response rating, Spanishneedles",[12]; [14],95
same,"Plant response rating, Spanishneedles",[12]; [22],80
same,"Plant response rating, Spanishneedles",[12]; [15],95
same,"Plant response rating, Spanishneedles",[12]; [16],95
same,"Plant response rating, Spanishneedles",[12]; [17],100
same,"Plant response rating, Spanishneedles",[12]; [18],100
same,"Plant response rating, Spanishneedles",[12]; [19],100
same,"Plant response rating, Spanishneedles",[12]; [23],100
same,"Plant response rating, Spanishneedles",[12]; [20],100
